The text below walks through data of ChEMBL document CHEMBL3991601, “The target landscape of clinical kinase drugs” (Science, 2017).

Activity calls are given as the source filed them. Cut-off read from the data, not from the text of the source, for most assays here: actives have a measured Kd and inactives only a lower limit.

Experiment [1] deals with T1, Mitogen-activated protein kinase kinase kinase 3 (Homo sapiens, UniProt Q99759).
T1 sequence (Q99759 whole entry): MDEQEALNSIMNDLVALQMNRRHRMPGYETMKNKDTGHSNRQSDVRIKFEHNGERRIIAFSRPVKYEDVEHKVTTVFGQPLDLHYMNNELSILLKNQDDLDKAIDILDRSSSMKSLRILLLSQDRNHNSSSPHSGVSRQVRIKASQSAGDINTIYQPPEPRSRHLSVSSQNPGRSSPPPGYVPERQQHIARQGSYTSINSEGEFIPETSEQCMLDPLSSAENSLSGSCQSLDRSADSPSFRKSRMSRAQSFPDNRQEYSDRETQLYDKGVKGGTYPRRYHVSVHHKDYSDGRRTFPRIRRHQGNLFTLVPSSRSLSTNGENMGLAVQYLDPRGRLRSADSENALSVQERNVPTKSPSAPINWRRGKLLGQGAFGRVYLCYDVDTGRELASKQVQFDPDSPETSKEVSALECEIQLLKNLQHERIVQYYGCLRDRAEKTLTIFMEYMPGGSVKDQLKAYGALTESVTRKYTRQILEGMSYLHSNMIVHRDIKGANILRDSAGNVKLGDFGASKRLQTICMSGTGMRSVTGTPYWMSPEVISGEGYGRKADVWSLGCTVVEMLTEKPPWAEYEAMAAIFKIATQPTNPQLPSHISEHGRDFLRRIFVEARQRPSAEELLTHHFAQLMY

Experiment [2] concerns the target Ephrin type-A receptor 2 (Homo sapiens, UniProt P29317).
For experiment [3], the target named is Protein kinase C theta type (Homo sapiens, UniProt Q04759).
In experiment [4] the target is Cyclin-dependent kinase 17 (Homo sapiens, UniProt Q00537).
Experiment [5] has as its target Dual specificity mitogen-activated protein kinase kinase 1 (Homo sapiens, UniProt Q02750).
In experiment [6] the target is Mitogen-activated protein kinase kinase kinase 1 (Homo sapiens, UniProt Q13233).
Experiment [7] addresses High affinity nerve growth factor receptor (Homo sapiens, UniProt P04629).
The target in experiment [8] is Rho-associated protein kinase 1 (Homo sapiens, UniProt Q13464).
Experiment [9] has as its target Serine/threonine-protein kinase pim-2 (Homo sapiens, UniProt Q9P1W9).
Experiment [10] deals with T2, Serine/threonine-protein kinase 4 (Homo sapiens, UniProt Q13043).
T2 sequence (Q13043 whole entry): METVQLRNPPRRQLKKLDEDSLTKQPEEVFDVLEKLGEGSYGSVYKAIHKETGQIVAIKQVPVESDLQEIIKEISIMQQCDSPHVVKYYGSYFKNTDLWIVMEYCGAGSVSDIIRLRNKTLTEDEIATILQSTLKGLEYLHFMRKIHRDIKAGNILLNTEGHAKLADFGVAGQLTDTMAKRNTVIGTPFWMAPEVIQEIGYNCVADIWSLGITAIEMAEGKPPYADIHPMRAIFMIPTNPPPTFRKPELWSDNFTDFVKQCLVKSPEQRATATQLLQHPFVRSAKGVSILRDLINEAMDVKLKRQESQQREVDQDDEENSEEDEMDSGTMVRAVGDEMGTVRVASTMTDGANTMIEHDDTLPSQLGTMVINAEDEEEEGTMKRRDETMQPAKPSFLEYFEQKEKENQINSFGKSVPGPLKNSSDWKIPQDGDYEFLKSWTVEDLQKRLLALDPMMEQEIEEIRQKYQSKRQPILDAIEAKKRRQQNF

The target in experiment [11] is T3, Receptor-type tyrosine-protein kinase FLT3 (Homo sapiens, UniProt P36888).
T3 sequence (P36888 whole entry): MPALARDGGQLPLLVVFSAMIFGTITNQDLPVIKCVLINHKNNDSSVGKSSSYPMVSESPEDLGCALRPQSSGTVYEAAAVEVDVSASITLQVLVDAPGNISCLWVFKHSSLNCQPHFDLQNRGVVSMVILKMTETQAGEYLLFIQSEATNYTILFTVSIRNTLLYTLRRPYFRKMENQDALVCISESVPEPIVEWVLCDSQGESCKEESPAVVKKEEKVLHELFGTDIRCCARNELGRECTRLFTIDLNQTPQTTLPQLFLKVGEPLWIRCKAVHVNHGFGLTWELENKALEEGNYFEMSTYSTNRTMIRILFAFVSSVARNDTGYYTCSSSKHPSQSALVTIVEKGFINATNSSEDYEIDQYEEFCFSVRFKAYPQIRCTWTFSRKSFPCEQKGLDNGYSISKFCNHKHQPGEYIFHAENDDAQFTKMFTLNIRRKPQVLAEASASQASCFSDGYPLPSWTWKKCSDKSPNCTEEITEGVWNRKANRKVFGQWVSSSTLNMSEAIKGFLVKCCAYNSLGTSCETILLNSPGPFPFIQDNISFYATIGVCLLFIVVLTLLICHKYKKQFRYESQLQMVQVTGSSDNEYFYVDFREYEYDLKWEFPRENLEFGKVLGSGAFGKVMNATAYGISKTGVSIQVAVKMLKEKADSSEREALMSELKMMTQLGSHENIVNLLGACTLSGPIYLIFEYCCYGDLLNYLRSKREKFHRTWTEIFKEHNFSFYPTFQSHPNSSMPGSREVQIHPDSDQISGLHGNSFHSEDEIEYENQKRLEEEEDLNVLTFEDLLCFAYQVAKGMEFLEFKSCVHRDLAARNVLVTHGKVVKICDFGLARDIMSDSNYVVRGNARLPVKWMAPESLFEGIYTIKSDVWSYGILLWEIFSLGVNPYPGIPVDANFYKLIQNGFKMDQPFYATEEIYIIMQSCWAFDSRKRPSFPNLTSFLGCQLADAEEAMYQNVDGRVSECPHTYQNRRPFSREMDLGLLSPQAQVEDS

The target of experiment [12] is Uncharacterized aarF domain-containing protein kinase 5 (Homo sapiens, UniProt Q3MIX3).
The target in experiment [13] is Hepatocyte growth factor receptor (Homo sapiens, UniProt P08581).
Experiment [14] concerns the target Dual specificity protein kinase CLK3 (Homo sapiens, UniProt P49761). The class given is subcellular, K-562, COLO 205, SK-N-BE(2) and MV-4-11, Cell lysate. Conditions: read-out: Kd apparent.
Note: in the data inactive means no Kd found up to 30 µM.

Chain of Uncharacterized aarF domain-containing protein kinase 5 (Q3MIX3 whole entry, the tested form may be a part): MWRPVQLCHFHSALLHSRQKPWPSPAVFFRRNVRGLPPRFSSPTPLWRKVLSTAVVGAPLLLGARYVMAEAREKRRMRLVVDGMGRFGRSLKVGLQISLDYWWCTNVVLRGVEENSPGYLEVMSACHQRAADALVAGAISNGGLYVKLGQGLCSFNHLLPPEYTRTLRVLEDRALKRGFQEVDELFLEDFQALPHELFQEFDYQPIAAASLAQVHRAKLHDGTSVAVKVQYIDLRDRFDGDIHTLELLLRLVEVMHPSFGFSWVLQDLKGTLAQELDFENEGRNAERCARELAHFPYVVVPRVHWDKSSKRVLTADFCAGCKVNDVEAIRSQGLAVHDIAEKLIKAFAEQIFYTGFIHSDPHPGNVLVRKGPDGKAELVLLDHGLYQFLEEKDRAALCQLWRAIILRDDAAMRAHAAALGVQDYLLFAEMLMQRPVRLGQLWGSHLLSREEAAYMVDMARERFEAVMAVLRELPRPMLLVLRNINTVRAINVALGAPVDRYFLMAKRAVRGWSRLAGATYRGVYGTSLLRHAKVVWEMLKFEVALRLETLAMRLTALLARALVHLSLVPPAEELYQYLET
Chain of Cyclin-dependent kinase 17 (Q00537 whole entry): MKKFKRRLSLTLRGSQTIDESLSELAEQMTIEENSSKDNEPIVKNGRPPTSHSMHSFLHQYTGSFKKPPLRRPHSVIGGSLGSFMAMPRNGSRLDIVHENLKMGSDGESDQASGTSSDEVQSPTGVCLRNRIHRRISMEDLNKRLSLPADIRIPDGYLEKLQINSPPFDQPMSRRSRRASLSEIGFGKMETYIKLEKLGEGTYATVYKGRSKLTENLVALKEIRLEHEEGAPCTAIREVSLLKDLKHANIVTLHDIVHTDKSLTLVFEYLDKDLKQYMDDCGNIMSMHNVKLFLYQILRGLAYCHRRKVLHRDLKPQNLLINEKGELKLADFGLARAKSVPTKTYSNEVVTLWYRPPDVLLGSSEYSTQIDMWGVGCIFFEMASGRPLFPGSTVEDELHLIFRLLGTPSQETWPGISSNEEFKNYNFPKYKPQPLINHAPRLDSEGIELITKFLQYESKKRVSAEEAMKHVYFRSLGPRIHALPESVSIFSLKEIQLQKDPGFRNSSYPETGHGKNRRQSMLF
Chain of Dual specificity mitogen-activated protein kinase kinase 1 (Q02750 whole entry): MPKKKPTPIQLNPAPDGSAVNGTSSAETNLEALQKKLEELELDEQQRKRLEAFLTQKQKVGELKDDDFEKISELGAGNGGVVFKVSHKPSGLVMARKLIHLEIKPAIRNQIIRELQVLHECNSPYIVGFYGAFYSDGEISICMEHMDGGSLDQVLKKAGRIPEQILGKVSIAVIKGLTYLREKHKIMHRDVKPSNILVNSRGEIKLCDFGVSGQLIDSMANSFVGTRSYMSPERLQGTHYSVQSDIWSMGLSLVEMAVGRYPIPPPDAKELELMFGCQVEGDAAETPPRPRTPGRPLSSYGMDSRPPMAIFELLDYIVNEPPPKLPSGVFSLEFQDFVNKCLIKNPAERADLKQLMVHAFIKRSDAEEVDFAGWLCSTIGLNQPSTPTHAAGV
Chain of High affinity nerve growth factor receptor (P04629 whole entry): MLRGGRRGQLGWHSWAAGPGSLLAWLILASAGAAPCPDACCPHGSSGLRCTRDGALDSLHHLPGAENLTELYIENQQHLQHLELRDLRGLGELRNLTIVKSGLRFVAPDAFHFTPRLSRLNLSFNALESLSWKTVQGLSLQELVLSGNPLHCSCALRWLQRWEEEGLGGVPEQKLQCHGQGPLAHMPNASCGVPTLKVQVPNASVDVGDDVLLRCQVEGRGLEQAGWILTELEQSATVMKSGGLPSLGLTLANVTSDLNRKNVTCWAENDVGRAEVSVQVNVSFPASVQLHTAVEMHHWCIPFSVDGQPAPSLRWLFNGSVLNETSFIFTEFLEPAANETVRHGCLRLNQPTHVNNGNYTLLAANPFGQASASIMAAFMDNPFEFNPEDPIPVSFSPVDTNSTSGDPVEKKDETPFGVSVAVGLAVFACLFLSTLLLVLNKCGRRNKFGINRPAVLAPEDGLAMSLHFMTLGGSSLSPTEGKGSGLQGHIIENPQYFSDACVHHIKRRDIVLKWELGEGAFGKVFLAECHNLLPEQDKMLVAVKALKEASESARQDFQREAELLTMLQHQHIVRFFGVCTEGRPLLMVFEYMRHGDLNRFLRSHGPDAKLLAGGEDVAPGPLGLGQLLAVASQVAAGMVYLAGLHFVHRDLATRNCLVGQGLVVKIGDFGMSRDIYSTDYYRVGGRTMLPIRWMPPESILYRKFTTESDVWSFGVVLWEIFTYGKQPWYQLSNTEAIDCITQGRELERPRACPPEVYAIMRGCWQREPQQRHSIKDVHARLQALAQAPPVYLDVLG
Chain of Protein kinase C theta type (Q04759 whole entry): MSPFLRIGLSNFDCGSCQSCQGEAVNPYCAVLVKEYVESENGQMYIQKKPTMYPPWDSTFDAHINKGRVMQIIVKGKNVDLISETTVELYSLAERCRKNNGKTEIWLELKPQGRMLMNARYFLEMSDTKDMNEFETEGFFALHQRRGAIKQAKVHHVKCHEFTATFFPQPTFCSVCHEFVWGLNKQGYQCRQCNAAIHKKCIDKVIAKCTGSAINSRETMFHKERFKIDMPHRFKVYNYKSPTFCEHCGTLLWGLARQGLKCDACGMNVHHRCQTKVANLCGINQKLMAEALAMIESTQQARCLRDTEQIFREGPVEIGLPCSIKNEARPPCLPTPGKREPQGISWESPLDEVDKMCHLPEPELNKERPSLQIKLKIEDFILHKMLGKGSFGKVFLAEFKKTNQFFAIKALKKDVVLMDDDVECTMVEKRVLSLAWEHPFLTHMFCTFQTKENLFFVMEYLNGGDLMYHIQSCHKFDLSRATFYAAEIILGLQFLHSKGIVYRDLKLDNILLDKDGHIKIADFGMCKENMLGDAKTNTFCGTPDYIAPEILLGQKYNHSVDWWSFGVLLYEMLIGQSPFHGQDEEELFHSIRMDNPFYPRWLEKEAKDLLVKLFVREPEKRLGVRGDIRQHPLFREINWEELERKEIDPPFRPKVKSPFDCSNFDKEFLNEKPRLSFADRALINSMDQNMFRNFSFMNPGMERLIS
Chain of Ephrin type-A receptor 2 (P29317 whole entry): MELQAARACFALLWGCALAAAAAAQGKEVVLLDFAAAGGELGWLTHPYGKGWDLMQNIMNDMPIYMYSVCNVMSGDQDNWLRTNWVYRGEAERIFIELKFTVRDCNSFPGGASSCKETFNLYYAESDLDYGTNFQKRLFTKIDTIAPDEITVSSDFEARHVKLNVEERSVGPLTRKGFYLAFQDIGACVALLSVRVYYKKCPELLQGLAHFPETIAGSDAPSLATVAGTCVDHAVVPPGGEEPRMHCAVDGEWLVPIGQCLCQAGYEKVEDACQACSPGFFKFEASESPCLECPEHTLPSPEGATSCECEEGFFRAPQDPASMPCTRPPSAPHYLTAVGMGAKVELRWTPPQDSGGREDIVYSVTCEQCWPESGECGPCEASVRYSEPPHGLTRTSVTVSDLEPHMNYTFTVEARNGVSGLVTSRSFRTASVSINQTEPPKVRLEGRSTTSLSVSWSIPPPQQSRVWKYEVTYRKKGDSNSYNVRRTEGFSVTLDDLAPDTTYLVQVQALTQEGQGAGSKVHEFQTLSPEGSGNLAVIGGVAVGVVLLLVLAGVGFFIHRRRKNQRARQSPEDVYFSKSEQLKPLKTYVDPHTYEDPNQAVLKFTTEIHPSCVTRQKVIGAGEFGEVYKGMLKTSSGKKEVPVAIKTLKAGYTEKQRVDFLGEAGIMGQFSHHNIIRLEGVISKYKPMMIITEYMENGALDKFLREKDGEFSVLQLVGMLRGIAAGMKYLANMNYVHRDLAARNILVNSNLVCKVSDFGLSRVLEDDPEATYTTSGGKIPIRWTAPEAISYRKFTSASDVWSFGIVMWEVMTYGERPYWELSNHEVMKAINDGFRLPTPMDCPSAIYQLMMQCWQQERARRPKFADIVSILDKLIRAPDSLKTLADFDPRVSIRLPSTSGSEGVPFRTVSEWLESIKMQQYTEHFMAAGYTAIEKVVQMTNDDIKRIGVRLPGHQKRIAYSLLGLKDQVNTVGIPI
Chain of Serine/threonine-protein kinase pim-2 (Q9P1W9 whole entry): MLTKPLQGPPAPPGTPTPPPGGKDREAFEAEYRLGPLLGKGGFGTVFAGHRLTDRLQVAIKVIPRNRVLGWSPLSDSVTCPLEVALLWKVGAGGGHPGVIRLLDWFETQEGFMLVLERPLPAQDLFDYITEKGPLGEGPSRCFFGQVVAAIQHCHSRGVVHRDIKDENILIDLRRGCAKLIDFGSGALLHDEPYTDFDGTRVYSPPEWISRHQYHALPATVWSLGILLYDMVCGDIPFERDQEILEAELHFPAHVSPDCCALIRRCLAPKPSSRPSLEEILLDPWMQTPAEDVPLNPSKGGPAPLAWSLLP
Chain of Dual specificity protein kinase CLK3 (P49761 whole entry): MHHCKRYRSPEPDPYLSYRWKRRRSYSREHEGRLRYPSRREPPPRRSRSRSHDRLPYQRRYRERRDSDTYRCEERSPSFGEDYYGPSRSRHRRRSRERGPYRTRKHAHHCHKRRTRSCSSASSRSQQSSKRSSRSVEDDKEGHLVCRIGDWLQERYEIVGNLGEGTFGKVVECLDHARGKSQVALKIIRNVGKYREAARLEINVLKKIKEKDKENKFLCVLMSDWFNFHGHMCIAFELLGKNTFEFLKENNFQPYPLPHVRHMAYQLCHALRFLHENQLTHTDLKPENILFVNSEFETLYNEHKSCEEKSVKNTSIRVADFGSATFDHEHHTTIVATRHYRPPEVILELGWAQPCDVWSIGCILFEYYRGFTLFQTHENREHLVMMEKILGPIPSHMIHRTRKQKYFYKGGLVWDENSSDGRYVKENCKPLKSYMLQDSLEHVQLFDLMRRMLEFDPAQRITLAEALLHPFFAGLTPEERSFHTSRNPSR

Turning to `O[C@H]1CC[C@H](Nc2ncc3nc(Nc4c(F)cc(F)cc4F)n([C@H]4CCOC4)c3n2)CC1` [TANZISERTIB], the Kd in experiment [1], in [2], in experiment [3], in [4], in [5] and in experiment [6] was > 30 µM (inactive) in each case. Further, the Kd in experiment [7], in experiment [8], in experiment [9], in experiment [10], in [11] and in experiment [12] was > 30 µM (inactive) in each case. In addition, in experiment [13], the Kd was > 30 µM (inactive).
As for `CNC(=O)c1cc(COc2nnc(Nc3ccc(Cl)cc3)c3ccoc23)ccn1` [TELATINIB], the Kd in experiment [1], in experiment [2], in [3], in [4], in [5] and in [6] was > 30 µM (inactive) in each case. For the same molecule, the Kd in experiment [7], in [9], in [10], in experiment [11] and in experiment [13] was > 30 µM (inactive) each time.
For the molecule `Cc1cc(-c2cc(OC(=O)c3ccccc3)ccc2Cl)cc2nnc(Nc3ccc(OCCN4CCCC4)cc3)nc12` [TG100-801], the Kd in experiment [1] was > 30 µM (inactive); in experiment [2], 1.19 µM (active); in experiment [3], > 30 µM (inactive); in experiment [4], > 30 µM (inactive); in [5], > 30 µM (inactive); in [6] it was > 30 µM (inactive). In addition, the Kd in experiment [7], in experiment [8], in [9], in experiment [10], in [11] and in [12] was > 30 µM (inactive) throughout. Also, in [13], the Kd was > 30 µM (inactive).
Turning to `CNC(=O)c1ccc(Nc2ncc(C(F)(F)F)c(NCc3nccnc3N(C)S(C)(=O)=O)n2)cc1` [DEFACTINIB], the Kd in [1], in [2], in experiment [3], in experiment [4], in [5] and in experiment [6] was > 30 µM (inactive) each time. In addition, the Kd in experiment [8] is > 30 µM (inactive); in [9], > 30 µM (inactive); in [10] it was 2.45 µM (active); in [11], 0.34 µM (active); in [12], > 30 µM (inactive); in [13] it was > 30 µM (inactive).
Turning to `Cc1cc(C(=O)Nc2cc(Oc3ccc4nc(NC(=O)C5CC5)cn4n3)ccc2C)n(C)n1` [TAK-593], the Kd in [1], in experiment [2], in experiment [3], in experiment [5], in experiment [6] and in experiment [7] was > 30 µM (inactive) in each case. In addition, the Kd in experiment [8], in experiment [9], in experiment [10], in [11], in [12] and in [13] was > 30 µM (inactive) in each case.
As for `CCN(CCCOc1ccc2c(Nc3cc(CC(=O)Nc4cccc(F)c4)n[nH]3)ncnc2c1)CCOP(=O)(O)O` [BARASERTIB], the Kd in experiment [1], in [2], in [4], in experiment [6], in experiment [10] and in experiment [14] was > 30 µM (inactive) in each case.
As to `C=CC(=O)Nc1cccc(Nc2nc(Nc3ccc(N4CCN(C(C)=O)CC4)cc3OC)ncc2C(F)(F)F)c1` [ROCILETINIB], the Kd in experiment [1], in experiment [2], in experiment [4], in experiment [5], in experiment [6] and in [7] was > 30 µM (inactive) each time. The Kd in experiment [8], in experiment [9], in experiment [10], in [11] and in experiment [12] was > 30 µM (inactive) each time.
Regarding `COc1cc2ncnc(Nc3ccc(O)cc3)c2cc1OC` [WHI-P131], the Kd in [1], in experiment [2], in [3], in experiment [4], in experiment [5] and in experiment [6] was > 30 µM (inactive) throughout. Moreover, the Kd in experiment [7] is > 30 µM (inactive); in [8], > 30 µM (inactive); in experiment [9], > 30 µM (inactive); in experiment [10], > 30 µM (inactive); in [11], 1.31 µM (active); in experiment [13] it was > 30 µM (inactive).
For the molecule `C[C@@H]1COC(Nc2ccc3ncnc(Nc4ccc(OCc5nccs5)c(Cl)c4)c3c2)=N1` [VARLITINIB], the Kd in experiment [1], in experiment [2], in [3], in experiment [4], in experiment [5] and in [6] was > 30 µM (inactive) each time. Further, the Kd in [7], in experiment [8], in experiment [9], in experiment [10], in experiment [11] and in experiment [13] was > 30 µM (inactive) throughout.
As for `Cc1c(NC(=O)OC[C@@H]2COCCN2)cn2ncnc(Nc3ccc4c(cnn4Cc4cccc(F)c4)c3)c12` [AC-480], the Kd in [1], in experiment [2], in experiment [3], in experiment [5], in [6] and in experiment [7] was > 30 µM (inactive) in each case. Further, the Kd in [8], in experiment [9], in [10], in experiment [11] and in [13] was > 30 µM (inactive) each time.
